Experimental data reported in paper PMC12508063, “Chloroindazole based estrogen receptor β ligands with favorable pharmacokinetics promote functional remyelination and visual recovery” (Scientific Reports, 2025).
Blank lines part the entries; values can stand above or below the molecule they belong to.

Key:
[1] = hepatocytes, 0.25 h
[2] = hepatocytes
primary mouse OPCs = test: OL differentiation in primary mouse OPC culture (MBP, DAPI); type: cell-based; conditions: 10 nM and 100 nM, concentration-dependent
Source text: Mouse and Human primary cell cultures: Primary OPC/OL culture were isolated from the cortices of postnatal day 0–1 C57BL/6J mice of both sexes, using established protocols[11],[20],[21]. Mouse OPC and Neuronal Co-cultures: Primary neuronal cultures were established in Neurobasal medium with B27 and plated on poly-L-lysine-coated coverslips. After 12 days, OPCs were isolated, counted, and added to neuronal cultures and media was replaced with neuronal and proliferation media for 3 days, then switched to maturation media that maintained both neurons and OLs. Human iPSC-derived OPCs (Tempo’s iOligo™) were expanded, cryopreserved, and later plated on Matrigel-coated coverslips. After 3 days in growth medium, cells were treated for 3 weeks with T3 containing maturation medium. Differentiation into myelin-producing OLs was assessed using O4 (OL surface marker on pre-OLs) and myelin basic protein (MBP) immunohistochemistry. In all conditions compounds or vehicle were added to culture during differentiation for either 5 days (mouse) or 18 days (human).
Immunocytochemistry and Image Analysis of cell cultures: After treatment, cells were fixed and stained for MBP and DAPI. Coverslips were imaged using a confocal microscope at 10× and 40× objectives. Cell densities were quantified using ImageJ and normalized to control conditions. MBP-positive cells, their process extensions, and highly branched OLs were counted to assess differentiation. Co-culture images were analyzed for MBP and β3-tubulin colocalization using JACoP[22] in ImageJ, with results validated by manual quantification.
Primary OL Progenitor cells (OPC) and Neuronal Cultures: OPC and cortical neuronal cultures were prepared from the cortices of postnatal day P0-P1 C57BL/6J mice of both sexes, following established protocols (1, 2);(3). The single-cell suspension was divided into two tubes. One tube was treated with warm Neuronal Basal media, counted, and plated onto poly-L-lysine (PLL)-coated glass coverslips. The second tube was resuspended in glial growth medium, composed of DMEM-F12 supplemented with 10% fetal bovine serum, and placed in a PLL-coated culture flask for 8–10 days until confluent. Primary OPCs were then isolated by shaking and either co-cultured with primary neurons or plated onto poly-D-lysine-coated glass coverslips (three coverslips per condition, 2x10^6 cells per coverslip). The OPCs were allowed to attach for three days, followed by five days in differentiating media (DMEM-F12 with Sato media containing triiodothyronine and thyroxine) supplemented with various analogues and remyelinating compounds. For comparison, a negative control (vehicle, consisting of the media and ethanol mixture used to dissolve the analogues and remyelinating compounds) and a normal control (differentiating media alone) were included in the experiments.
Quantification of Mature OLs and Co-culture axon myelination: At the conclusion of the treatment period, cells were fixed and subjected to immunocytochemistry to evaluate myelin basic protein (MBP) expression, co-stained with the nuclear marker DAPI (shown in blue). […] Cell counting was performed using the ImageJ multipoint tool, and cell densities were calculated by dividing the counts by the image area (mm²). […]
To assess OL differentiation, the number of MBP-positive (MBP+) cells and process extensions exceeding the diameter of the cell body were quantified.

[3] = Stability in human plasma; type: in vitro ADME
[4] = plasma
[5] = plasma; remark: listed apart in the source
EAE mice = test: EAE clinical disease score; type: in vivo, C57BL/6J mouse; conditions: 5 mg/kg/day SC from peak disease
Method: EAE induction and treatment: EAE was induced in 8–10-week-old wild-type C57BL/6J mice using MOG₃₅-₅₅ peptide[11],[14],[23]–[25]. Mice were scored daily using a standard clinical scale (0–5) and tested for their ability to stay on a rotarod. […] At peak disease (18–22 days post-immunization), animals were grouped into EAE+Vehicle, EAE+K102, and EAE+K110.
Fig. 3 Experimental design for treatment effects in EAE. (A) Experimental plan. […] Following emulsion injection, mice were injected with pertussis (PTX). Mice were scored for their clinical EAE score daily. EAE mice (red) show signs of disease starting at days 8–17. At peak disease between the days […], therapeutic treatment started and continued daily until the end of the experiment (D35-45). […] N = 6–8 mice/group. Two-Way unbalanced ANOVA with Dunnett’s multiple comparisons test was performed. […]
EAE induction and treatment: Eight to ten-week-old wild-type C57BL/6J mice were induced with active EAE using MOG35-55 peptide as previously described (1-5). […] Animals were scored daily for clinical EAE scores as follows: 0, unaffected; 1, complete tail limpness; 2, failure to right upon attempt to roll over; 3, partial hind limb paralysis; 4, complete hind limb paralysis; […]. At peak disease 18-22 dpi, mice were scored and separated into 3 groups: EAE+V, EAE+SHK-K102, and EAE+K110. […]

CYP1A2 = CYP1A2 (Homo sapiens, UniProt P05177); test: in vitro
[6] = system: multiple sclerosis patients; conditions: oral estriol combined with glatiramer acetate (GA), Phase 2 trial; cited from earlier work

CYP1A2, sequence (P05177 whole entry): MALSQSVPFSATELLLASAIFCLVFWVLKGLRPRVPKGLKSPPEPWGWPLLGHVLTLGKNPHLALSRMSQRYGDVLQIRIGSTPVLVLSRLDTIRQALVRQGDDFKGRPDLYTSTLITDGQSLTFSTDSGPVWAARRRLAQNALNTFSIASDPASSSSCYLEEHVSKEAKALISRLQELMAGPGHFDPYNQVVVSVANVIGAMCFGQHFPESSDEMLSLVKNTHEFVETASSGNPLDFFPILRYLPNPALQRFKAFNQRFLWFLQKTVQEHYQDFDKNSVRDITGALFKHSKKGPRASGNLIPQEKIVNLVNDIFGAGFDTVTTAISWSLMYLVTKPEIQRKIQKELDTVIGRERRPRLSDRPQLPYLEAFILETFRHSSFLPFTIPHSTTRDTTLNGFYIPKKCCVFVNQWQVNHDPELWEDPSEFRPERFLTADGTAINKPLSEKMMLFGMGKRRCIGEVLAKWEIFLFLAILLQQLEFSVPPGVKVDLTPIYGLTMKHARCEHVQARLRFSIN

- Hepatocyte Stability (Mouse) % Remaining (15 min) [1]: 10.94%
- Hepatocyte Stability (Human) CLint [2]: 78.30 µL/min/mg protein
- Hepatocyte Stability (Human) % Remaining (15 min) ([2]; 0.25 h): 57.83%
- % Remaining at 6 hr in Human Plasma [3]: 91.37%
- Protein Binding (% Bound) Human [4]: 98.05%
- Protein Binding (% Bound) Mouse [5]: 97.74%
Compound: Oc1ccc(-n2nc3ccc(O)cc3c2Cl)cc1 [Compound K101, IndCl]
- number of MBP+ cells vs vehicle (primary mouse OPCs): significantly increased
- EAE clinical disease (EAE mice): decrease in EAE clinical disease

- inhibition at 10 µM (CYP1A2): 91.7%
Compound: Cc1nc2c([nH]1)c(=O)n(C)c(=O)n2Cc1ccco1 [Furafylline]

Compound: C[C@]12CC[C@@H]3c4ccc(O)cc4CC[C@H]3[C@@H]1C[C@@H](O)[C@@H]2O [estriol]
- reduction in annualized relapse rate compared to placebo [6]: 32%
